Assay results reported in patent publication US20260248927A1, “TARGETED PROTEIN DEGRADATION USING BIFUNCTIONAL COMPOUNDS THAT BIND UBIQUITIN LIGASE AND TARGET MCL-1 PROTEIN” (Captor Therapeutics S.A., priority 2022, published 2026).

What was measured:
[1] = molecular target: [MCL-1]-[compound of formula (I)]—[CRBN/DDB1] (Homo sapiens, UniProt Q07820+Q96SW2); assay: HTRF ternary complex formation assay; type: binding; details: hMcl-1 and CRBN, 180 min at 25° C.; read-out: HTRF ternary complex Average pEC50 by molecule (converted)
[MCL-1]-[compound of formula (I)]—[CRBN/DDB1], sequence (Q07820 whole entry): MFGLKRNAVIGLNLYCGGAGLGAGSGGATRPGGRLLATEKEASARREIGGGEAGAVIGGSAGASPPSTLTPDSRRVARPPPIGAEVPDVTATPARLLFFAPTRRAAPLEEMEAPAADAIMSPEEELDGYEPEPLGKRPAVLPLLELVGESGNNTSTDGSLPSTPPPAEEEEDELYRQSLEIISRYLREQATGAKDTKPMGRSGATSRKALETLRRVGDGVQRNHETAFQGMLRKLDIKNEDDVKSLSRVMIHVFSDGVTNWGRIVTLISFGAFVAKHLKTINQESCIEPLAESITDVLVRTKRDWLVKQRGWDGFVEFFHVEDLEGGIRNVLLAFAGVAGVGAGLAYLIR
[MCL-1]-[compound of formula (I)]—[CRBN/DDB1], sequence (Q96SW2 whole entry): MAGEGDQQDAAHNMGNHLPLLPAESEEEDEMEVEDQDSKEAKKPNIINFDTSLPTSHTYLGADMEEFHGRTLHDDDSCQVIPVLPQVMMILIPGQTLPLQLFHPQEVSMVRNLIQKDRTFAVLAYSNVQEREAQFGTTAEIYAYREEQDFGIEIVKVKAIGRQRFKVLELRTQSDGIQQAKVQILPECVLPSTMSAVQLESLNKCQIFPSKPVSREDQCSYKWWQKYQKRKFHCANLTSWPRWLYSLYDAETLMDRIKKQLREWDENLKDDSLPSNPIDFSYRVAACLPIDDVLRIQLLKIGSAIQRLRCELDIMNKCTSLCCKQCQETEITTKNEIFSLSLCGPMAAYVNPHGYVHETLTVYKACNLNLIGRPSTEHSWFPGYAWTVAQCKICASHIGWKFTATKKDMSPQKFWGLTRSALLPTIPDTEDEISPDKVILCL
[MCL-1]-[compound of formula (I)]—[CRBN/DDB1], sequence (Q16531 whole entry partner): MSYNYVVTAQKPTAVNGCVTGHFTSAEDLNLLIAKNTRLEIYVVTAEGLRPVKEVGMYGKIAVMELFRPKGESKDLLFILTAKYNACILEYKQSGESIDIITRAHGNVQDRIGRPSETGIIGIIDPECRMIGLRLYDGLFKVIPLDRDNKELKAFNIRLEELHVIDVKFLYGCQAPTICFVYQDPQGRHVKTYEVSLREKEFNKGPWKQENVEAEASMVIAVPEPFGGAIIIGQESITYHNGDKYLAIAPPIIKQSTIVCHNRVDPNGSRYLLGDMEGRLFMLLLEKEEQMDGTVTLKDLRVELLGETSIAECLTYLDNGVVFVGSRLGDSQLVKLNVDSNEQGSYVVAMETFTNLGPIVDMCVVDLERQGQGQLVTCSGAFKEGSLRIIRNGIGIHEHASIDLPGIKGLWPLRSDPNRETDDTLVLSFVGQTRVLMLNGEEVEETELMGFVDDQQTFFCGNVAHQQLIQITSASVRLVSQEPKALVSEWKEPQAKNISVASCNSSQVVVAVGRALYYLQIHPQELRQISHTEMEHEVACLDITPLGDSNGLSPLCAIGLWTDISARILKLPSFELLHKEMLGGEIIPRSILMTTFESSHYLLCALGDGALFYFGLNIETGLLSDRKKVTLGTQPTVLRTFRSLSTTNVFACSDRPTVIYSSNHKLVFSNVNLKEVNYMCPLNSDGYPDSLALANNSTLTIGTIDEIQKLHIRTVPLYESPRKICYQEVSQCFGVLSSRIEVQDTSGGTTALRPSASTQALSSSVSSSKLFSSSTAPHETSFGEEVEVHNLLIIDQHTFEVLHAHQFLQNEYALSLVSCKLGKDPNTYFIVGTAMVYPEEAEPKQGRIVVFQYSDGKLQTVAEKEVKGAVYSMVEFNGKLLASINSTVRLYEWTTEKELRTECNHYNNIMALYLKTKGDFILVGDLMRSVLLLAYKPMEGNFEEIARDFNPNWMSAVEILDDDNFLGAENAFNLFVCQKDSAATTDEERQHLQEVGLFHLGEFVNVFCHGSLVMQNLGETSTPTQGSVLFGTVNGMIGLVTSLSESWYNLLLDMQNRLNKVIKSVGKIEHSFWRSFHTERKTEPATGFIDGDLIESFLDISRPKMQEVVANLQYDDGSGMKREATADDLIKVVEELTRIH
Method: The effect of the bifunctional compounds of the invention on the formation of a ternary complex composed of [MCL-1]-[compound of formula (I)]—[CRBN/DDB1] was investigated with HTRF ternary complex assay.
Mix of protein solution was prepared: • 48 nM hMcl-1 and 105.6 nM CRBN were prepared in PPI Europium detection buffer with 2 mM DTT. • Acceptor and donor stock solutions were diluted 100 times in PPI Europium detection buffer. Equal volumes of both reagents were mixed. Finally giving 3 nM of Streptavidin-Eu cryptate ([…]) and 6.67 nM of Anti-6×his-d2 ([…]).
5 μl of protein mix was dispensed to all wells. The tested compounds in dose-response were dispensed onto a white 384-well low volume plate (Greiner, 784075). DMSO was backfilled to all wells, resulting in a final DMSO content of 0.5%. Wells containing only DMSO served as a background. Next, 5 μl of solution with donor and acceptor was added to the wells.
The plate was sealed with transparent film and shaken using a VibroTurbulator for 60 sec at level 3. The plate was then spun down shortly (10 s, 1000 rcf) and incubated at 25° C. for 180 min.
The read-out was performed with plate reader (Pherastar, BMG Labtech) in time resolved fluorescence mode. Filterset: TR 337 665 620.
The results were analyzed as follows: • 1) an average of fluorescence for background signal was calculated and used as a negative control; • 2) raw fluorescence values for tested compounds were normalized against negative controls; • 3) bell shape curve was fitted to a gaussian distribution using a non-linear least squares Gauss-Newton algorithm; • 4) EC50 and pEC50 values were determined.

MV4-11 cells = assay: Cell viability assay (CellTiter-Glo), MV4-11; type: cell-based; details: Homo sapiens, MV4-11, 24 hours, 1% FBS, read-out: Average pCC50 by molecule MV4-11 (converted)
Excerpt: (§1) The effect of various compounds of the invention on the viability of MV4-11 and ARH-77 cell lines was investigated, using the CTG protocol described below.
(§2) MV4-11 cell lines are derived from acute myeloid leukaemia and it is described in the literature as a MCL-1 dependent cell line, as opposed to lymphoblast-like ARH-77 cell line, which is described as independent of MCL-1 (Tron A E et al. Nat Commun. 2018; 9: 5341; Caenepeel S et al. Cancer Discov. 2018 December; 8(12): 1582-1597).
(§3) Cells (MV4-11 or ARH-77) were seeded on […] in a growth medium with 1% FBS. Next, compound stocks were pre-diluted in DMSO and added directly to the cell culture media (final DMSO concentration: 0.5%). Compound concentrations used in this assay: 1/3 dilutions starting at 30 μM (9 to 12 points). After 24 hours of incubation, cell viability was evaluated using CellTiter-Glo Luminescent Cell Viability Assay (Promega, cat #G7572). The luminescence signal was measured using a CLARIOstar Plus Multi-Mode Microplate Reader (574-590 nm).
(§4) Results were normalized to DMSO control. Collected data were analyzed using GraphPad Prism to calculate pCC50 values.

[2] = Cell viability assay (CellTiter-Glo), ARH-77; type: cell-based; details: human, ARH-77 cells (lymphoblast-like, MCL-1 independent), ARH-77, 24 hours, 1% FBS, read-out: Average pCC50 by molecule ARH-77 (converted)
Excerpt: as §1, §2, §3, §4

SMILES	EC50 [1] [nM]	CC50 (MV4-11 cells) [nM]	CC50 at 24 h [2] [nM]
Cc1nc2cc(C(=O)NCC(=O)N3CCN(CCn4c(C(=O)O)c(CCCOc5cccc6cc(F)ccc56)c5ccc(Cl)c(-c6c(C)nn(C)c6C)c54)CC3)ccc2cc1C1CCC(=O)NC1=O (stereo not drawn) [Compound 6, 6-Chloro-1-(2-(4-((3-(2,6-dioxopiperidin-3-yl)-2-methylquinoline-7-carbonyl)glycyl)piperazin-1-yl)ethyl)-3-(3-((6-fluoronaphthalen-1-yl)oxy)propyl)-7-(1,3,5-trimethyl-1H-pyrazol-4-yl)-1H-indole-2-carboxylic acid]	< 100	< 100	> 10000
Cc1nn(C)c(C)c1-c1c(Cl)ccc2c(CCCOc3cccc4cc(F)ccc34)c(C(=O)O)n(CCN3CCN(C(=O)COc4cc(N5CCCCC5)cc5c4CN(C4CCC(=O)NC4=O)C5=O)CC3)c12 (stereo not drawn) [Compound 14, 6-Chloro-1-{2-[4-(2-{[2-(2,6-dioxopiperidin-3-yl)-1-oxo-6-(piperidin-1-yl)-2,3-dihydro-1H-isoindol-4-yl]oxy}acetyl)piperazin-1-yl]ethyl}-3-{3-[(6-fluoronaphthalen-1-yl)oxy]propyl}-7-(1,3,5-trimethyl-1H-pyrazol-4-yl)-1H-indole-2-carboxylic acid]	< 31.6	< 316	> 3160
Cc1nn(C)c(C)c1-c1c(Cl)ccc2c(CCCOc3cccc4cc(F)ccc34)c(C(=O)O)n(CCN3CCN(C(=O)COc4cccc5c4C(C)N(C4CCC(=O)NC4=O)C5=O)CC3)c12 (stereo not drawn) [Compound 15, 6-Chloro-1-{2-[4-(2-{[2-(2,6-dioxopiperidin-3-yl)-3-methyl-1-oxo-2,3-dihydro-1H-isoindol-4-yl]oxy}acetyl)piperazin-1-yl]ethyl}-3-{3-[(6-fluoronaphthalen-1-yl)oxy]propyl}-7-(1,3,5-trimethyl-1H-pyrazol-4-yl)-1H-indole-2-carboxylic acid]	< 316	< 100	> 10000
Cc1nn(C)c(C)c1-c1c(Cl)ccc2c(CCCOc3cccc4cc(F)ccc34)c(C(=O)O)n(CCN3CCN(C(=O)COc4ccc5c6c(cccc46)C(=O)N5C4CCC(=O)NC4=O)CC3)c12 (stereo not drawn) [Compound 21, 6-Chloro-1-(2-(4-(2-((1-(2,6-dioxopiperidin-3-yl)-2-oxo-1,2-dihydrobenzo[cd]indol-6-yl)oxy)acetyl)piperazin-1-yl)ethyl)-3-(3-((6-fluoronaphthalen-1-yl)oxy)propyl)-7-(1,3,5-trimethyl-1H-pyrazol-4-yl)-1H-indole-2-carboxylic acid]	< 31.6	< 316	> 10000
Cc1nn(C)c(C)c1-c1c(Cl)ccc2c(CCCOc3cccc4cc(F)ccc34)c(C(=O)O)n(CCN3CCN(C(=O)COc4ccc5c(c4)n(C)c(=O)n5C4CCC(=O)NC4=O)CC3)c12 (stereo not drawn) [Compound 22, 6-Chloro-1-(2-(4-(2-((1-(2,6-dioxopiperidin-3-yl)-3-methyl-2-oxo-2,3-dihydro-1H-benzo[d]imidazol-5-yl)oxy)acetyl)piperazin-1-yl)ethyl)-3-(3-((6-fluoronaphthalen-1-yl)oxy)propyl)-7-(1,3,5-trimethyl-1H-pyrazol-4-yl)-1H-indole-2-carboxylic acid]	< 100	< 31.6	> 31600
Cc1nn(C)c(C)c1-c1c(Cl)ccc2c(CCCOc3cccc4cc(F)ccc34)c(C(=O)O)n(CCN3CCN(C(=O)COc4cccc5c4n(C)c(=O)n5C4CCC(=O)NC4=O)CC3)c12 (stereo not drawn) [Compound 23, 6-Chloro-1-(2-(4-(2-((1-(2,6-dioxopiperidin-3-yl)-3-methyl-2-oxo-2,3-dihydro-1H-benzo[d]imidazol-4-yl)oxy)acetyl)piperazin-1-yl)ethyl)-3-(3-((6-fluoronaphthalen-1-yl)oxy)propyl)-7-(1,3,5-trimethyl-1H-pyrazol-4-yl)-1H-indole-2-carboxylic acid]	< 316	< 31.6	> 10000
Cc1nn(C)c(C)c1-c1c(Cl)ccc2c(CCCOc3cccc4cc(F)ccc34)c(C(=O)O)n(CCN3C(C)CN(C(=O)COc4cccc5c4CN(C4CCC(=O)NC4=O)C5=O)CC3C)c12 (stereo not drawn) [Compound 28, 6-Chloro-1-{2-[4-(2-{[2-(2,6-dioxopiperidin-3-yl)-1-oxo-2,3-dihydro-1H-isoindol-4-yl]oxy}acetyl)-2,6-dimethylpiperazin-1-yl]ethyl}-3-{3-[(6-fluoronaphthalen-1-yl)oxy]propyl}-7-(1,3,5-trimethyl-1H-pyrazol-4-yl)-1H-indole-2-carboxylic acid]	< 100	< 316	> 10000
CCc1nn2c(c1-c1c(Cl)ccc3c(CCCOc4cccc5cc(F)ccc45)c(C(=O)O)n(CCN4CCN(C(=O)COc5cccc6c5CN(C5CCC(=O)NC5=O)C6=O)CC4)c13)COCC2 (stereo not drawn) [Compound 36, 6-Chloro-1-(2-(4-(2-((2-(2,6-dioxopiperidin-3-yl)-1-oxoisoindolin-4-yl)oxy)acetyl)piperazin-1-yl)ethyl)-7-(2-ethyl-6,7-dihydro-4H-pyrazolo[5,1-c][1,4]oxazin-3-yl)-3-(3-((6-fluoronaphthalen-1-yl)oxy)propyl)-1H-indole-2-carboxylic acid]	< 316	< 100	> 10000

Continued, in another order:

EC50 [1] [nM]	SMILES	CC50 (MV4-11 cells) [nM]	CC50 at 24 h [2] [nM]
< 100	COc1ccc2c(c1OCC(=O)N1CCN(CCn3c(C(=O)O)c(CCCOc4cccc5cc(F)ccc45)c4ccc(Cl)c(-c5c(C)nn(C)c5C)c43)CC1)CN(C1CCC(=O)NC1=O)C2=O (stereo not drawn) [Compound 7, 6-Chloro-1-{2-[4-(2-{[2-(2,6-dioxopiperidin-3-yl)-5-methoxy-1-oxo-2,3-dihydro-1H-isoindol-4-yl]oxy}acetyl)piperazin-1-yl]ethyl}-3-{3-[(6-fluoronaphthalen-1-yl)oxy]propyl}-7-(1,3,5-trimethyl-1H-pyrazol-4-yl)-1H-indole-2-carboxylic acid]	< 100	> 10000
< 316	Cc1nn(C)c(C)c1-c1c(Cl)ccc2c(CCCOc3cccc4cc(F)ccc34)c(C(=O)O)n(CCN3CCN(C(=O)COc4c(N(C)C)ccc5c4CN(C4CCC(=O)NC4=O)C5=O)CC3)c12 (stereo not drawn) [Compound 10, 6-Chloro-1-(2-(4-(2-((5-(dimethylamino)-2-(2,6-dioxopiperidin-3-yl)-1-oxoisoindolin-4-yl)oxy)acetyl)piperazin-1-yl)ethyl)-3-(3-((6-fluoronaphthalen-1-yl)oxy)propyl)-7-(1,3,5-trimethyl-1H-pyrazol-4-yl)-1H-indole-2-carboxylic acid]	< 316	> 10000
< 316	Cc1nn(C)c(C)c1-c1c(Cl)ccc2c(CCCOc3cccc4cc(F)ccc34)c(C(=O)O)n(CCN3CCN(C(=O)COc4cc(N)cc5c4CN(C4CCC(=O)NC4=O)C5=O)CC3)c12 (stereo not drawn) [Compound 11, 1-{2-[4-(2-{[6-Amino-2-(2,6-dioxopiperidin-3-yl)-1-oxo-2,3-dihydro-1H-isoindol-4-yl]oxy}acetyl)piperazin-1-yl]ethyl}-6-chloro-3-{3-[(6-fluoronaphthalen-1-yl)oxy]propyl}-7-(1,3,5-trimethyl-1H-pyrazol-4-yl)-1H-indole-2-carboxylic acid]	< 100	> 10000
< 316	CNc1cc(OCC(=O)N2CCN(CCn3c(C(=O)O)c(CCCOc4cccc5cc(F)ccc45)c4ccc(Cl)c(-c5c(C)nn(C)c5C)c43)CC2)c2c(c1)C(=O)N(C1CCC(=O)NC1=O)C2 (stereo not drawn) [Compound 12, 6-Chloro-1-(2-(4-(2-((2-(2,6-dioxopiperidin-3-yl)-6-(methylamino)-1-oxoisoindolin-4-yl)oxy)acetyl)piperazin-1-yl)ethyl)-3-(3-((6-fluoronaphthalen-1-yl)oxy)propyl)-7-(1,3,5-trimethyl-1H-pyrazol-4-yl)-1H-indole-2-carboxylic acid]	< 100	> 31600
